Experimental data published in patent publication US12528773B2, “Non-lysosomal glucosylceramidase inhibitors and uses thereof” (ALECTOS THERAPEUTICS INC., priority 2020, dated 2026).

Columns and labels:
Format in all cases: biochemical
GBA2 [1] = molecular target: T1, GBA2 (Homo sapiens (Human), UniProt Q9HCG7); assay: Inhibition of GBA2 in cell lysate (4-methylumbelliferone glucopyranoside substrate); conditions: HEK293T-overexpressing GBA2 cellular homogenate, pH 5.5; read-out: GBA2 IC50;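 note: homogenate of stably transfected HEK293T cells pre-treated with a GCase inhibitor, test compound preincubated 5 min at 37 °C, substrate reaction 20 min at 37 °C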
T1 sequence (Q9HCG7 whole entry): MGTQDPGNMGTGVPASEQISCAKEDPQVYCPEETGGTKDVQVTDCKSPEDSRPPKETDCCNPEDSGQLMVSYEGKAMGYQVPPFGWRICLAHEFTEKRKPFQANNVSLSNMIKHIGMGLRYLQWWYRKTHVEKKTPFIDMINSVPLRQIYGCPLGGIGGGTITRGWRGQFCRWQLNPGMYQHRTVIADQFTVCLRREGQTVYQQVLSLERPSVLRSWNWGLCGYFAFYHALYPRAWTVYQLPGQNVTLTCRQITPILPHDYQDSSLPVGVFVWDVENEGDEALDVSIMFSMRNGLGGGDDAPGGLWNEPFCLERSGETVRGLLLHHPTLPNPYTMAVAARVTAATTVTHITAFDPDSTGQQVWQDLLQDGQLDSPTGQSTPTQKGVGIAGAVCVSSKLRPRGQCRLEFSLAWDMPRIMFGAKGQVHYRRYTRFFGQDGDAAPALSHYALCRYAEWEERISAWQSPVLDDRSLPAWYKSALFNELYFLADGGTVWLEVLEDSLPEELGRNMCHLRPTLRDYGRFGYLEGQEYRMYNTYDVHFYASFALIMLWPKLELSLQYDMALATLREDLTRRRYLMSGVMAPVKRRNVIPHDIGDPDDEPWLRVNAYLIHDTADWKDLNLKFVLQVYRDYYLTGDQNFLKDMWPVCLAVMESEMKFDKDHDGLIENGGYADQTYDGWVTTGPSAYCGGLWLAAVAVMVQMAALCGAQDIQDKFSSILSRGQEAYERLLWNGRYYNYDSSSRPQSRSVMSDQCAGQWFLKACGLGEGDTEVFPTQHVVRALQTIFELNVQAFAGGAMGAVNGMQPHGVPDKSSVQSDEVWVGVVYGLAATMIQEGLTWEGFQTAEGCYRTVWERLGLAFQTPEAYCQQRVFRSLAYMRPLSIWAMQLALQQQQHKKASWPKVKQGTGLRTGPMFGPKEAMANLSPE

[2] = tested on: rat intestinal alpha-glucosidases; assay: Inhibition of rat intestinal alpha-glucosidases (rat intestinal lysate, glucose detection); conditions: compound concentration 25 μM, sucrose as substrate
Description: Assay for Determination of Inhibition of Rat Intestinal Alpha-Glucosidases
Various concentrations of test compounds were prepared in DMSO and then diluted into buffer consisting of 100 mM citric acid, 200 mM disodium phosphate, pH 6.0. Rat intestinal acetone powder (Sigma) was dissolved to 12.5 mg/mL in assay buffer and sonicated in an ice bath, centrifuged, and the supernatant was collected, aliquoted and stored at −20° C. until use. On the day of the assay, the rat intestinal lysate was diluted to 6.25 mg/mL (sucrose reactions) and 2.1 mg/ml (maltose reactions) in assay buffer. The final reaction solutions for sucrose contained 2.1 mg/mL rat intestinal lysate, 40 mM sucrose, 50 or 25 μM of test compound, and 3.3% DMSO. The final reaction solution for maltose contained 0.69 mg/mL rat intestinal lysate, 10 mM maltose, 50 or 25 μM of test compound, and 3.3% DMSO. The reaction was initiated by the addition of substrate (sucrose or maltose) and allowed to proceed at 37° C. for 20 min to assess rat intestinal alpha-glycosidase activities. The reaction was stopped by addition of 20 μL of 2 M Tris-HCl, pH 7.0. The glucose produced during the reaction was detected using a commercial Amplex Red glucose detection kit from Thermo Fisher. For a full plate, the Amplex Red detection mixture was prepared by mixing 35 μL glucose oxidase, 35 μL horseradish peroxidase and 35 μL Amplex Red into 3395 μL 1× Amplex Red detection buffer. A total of 30 μL of detection mixture was added to each well. Fluorescence was measured in kinetic mode on a Biotek Synergy H4 plate reader at a wavelength of 573 nm for excitation and 610 nm for emission for 15 min and quantified from the data at 10 min. Incubations without added rat intestinal lysate were used to correct for the background amount of glucose present in the samples. Incubations without added test compound were used to define maximal enzyme activity. Percent inhibition of rat intestinal alpha-glucosidases was determined by dividing the amount of glucose detected in the presence of test compound by the amount of glucose detected in the maximal enzyme activity wells. All conditions were analyzed in triplicate. […] The final reaction solutions were the same as described above for the Amplex Red Detection kit. After a 20 min reaction time at 37° C., 100 μL of hexokinase glucose reagent was added to all test wells except for the no enzyme added control wells and no test compound added wells. The plate was incubated for a further 15 min at room temperature and the absorbance was read at 340 nm on a Biotek Synergy H4 plate reader. The percent inhibition of rat intestinal alpha-glucosidases was determined in a similar manner as described above.

GBA2 [3] = molecular target: T1, GBA2; assay: Binding specificity for GBA2 over other molecules, Ki or IC50 ratio
Description: In some embodiments, one or more of the compounds according to the invention may specifically bind a GBA2. In alternative embodiments, one or more of the compounds according to the invention may specifically bind the active site of a GBA2. […] In alternative embodiments, one or more of the compounds according to the invention may specifically bind the human non-lysosomal glucosylceramidase (GBA2) over the human lysosomal glucosylceramidase (GCase) and/or the human cytosolic glucosylceramidase (GBA3). In alternative embodiments, one or more of the compounds according to the invention may specifically bind the human non-lysosomal glucosylceramidase (GBA2) over the human glucosylceramide synthase (GCS). In alternative embodiments, one or more of the compounds according to the invention may specifically bind the human non-lysosomal glucosylceramidase (GBA2) over an intestinal alpha-glucosidase, where the intestinal alpha-glucosidase may be a sucrase-isomaltase or a maltase-glucoamylase.

| Compound | IC50 (GBA2 [1]) [nM] | binding specificity, IC50(other molecule)/IC50(GBA2) or Ki ratio (GBA2 [3]) | rat α-glu. (% inhib.) [2] [%] |
| --- | --- | --- | --- |
| CC(C)(F)[C@H]1CC[C@@H](CN2C[C@@H](O)[C@H](O)[C@@H](O)C2)CC1 [Example 3, (3S,4R,5R)-1-(((1s,4S)-4-(2-fluoropropan-2-yl)cyclohexyl)methyl)piperidine-3,4,5-triol] | < 100 | enhanced binding specificity | 1 |
| O[C@H]1[C@H](O)CN(CCc2c(F)ccc(Cl)c2F)C[C@@H]1O [Example 7, (3S,4r,5R)-1-(3-chloro-2,6-difluorophenethyl)piperidine-3,4,5-triol] | < 100 | enhanced binding specificity | 0 |
| O[C@H]1[C@H](O)CN(CCc2c(F)cc(OCC3CC3)cc2F)C[C@@H]1O [Example 9, (3S,4r,5R)-1-(4-(cyclopropylmethoxy)-2,6-difluorophenethyl)piperidine-3,4,5-triol] | < 100 | enhanced binding specificity | 0 |
| O[C@H]1[C@H](O)CN(CC2(F)CCN(c3nc4ccccc4s3)CC2)C[C@@H]1O [Example 196, (3S,4r,5R)-1-((1-(benzo[d]thiazol-2-yl)-4-fluoropiperidin-4-yl)methyl)piperidine-3,4,5-triol] | 100 to 1000 | – | 10 |
| CCCCOc1ccc(CN2C[C@@H](O)[C@H](O)[C@@H](O)C2)cc1 [Example 197, (3S,4r,5R)-1-(4-butoxybenzyl)piperidine-3,4,5-triol] | < 100 | – | 5 |
| CCCCCOc1ccc(CN2C[C@@H](O)[C@H](O)[C@@H](O)C2)cc1 [Example 198, (3S,4r,5R)-1-(4-(pentyloxy)benzyl)piperidine-3,4,5-triol] | < 100 | – | 12 |
| CCCCOc1cc(F)c(CN2C[C@@H](O)[C@H](O)[C@@H](O)C2)c(F)c1 [Example 199, (3S,4r,5R)-1-(4-butoxy-2,6-difluorobenzyl)piperidine-3,4,5-triol] | 1000 to 25000 | – | 5 |
| O[C@H]1[C@H](O)CN(Cc2ccc(OCC3CC3)cc2)C[C@@H]1O [Example 200, (3S,4r,5R)-1-(4-(cyclopropylmethoxy)benzyl)piperidine-3,4,5-triol] | < 100 | – | 7 |
| O[C@H]1[C@H](O)CN(Cc2ccc(-c3ccccc3)cc2)C[C@@H]1O [Example 202, (3S,4r,5R)-1-([1,1′-biphenyl]-4-ylmethyl)piperidine-3,4,5-triol] | < 100 | – | 11 |

Now from value to compound, other results behind:

| IC50 (GBA2 [1]) [nM] | binding specificity, IC50(other molecule)/IC50(GBA2) or Ki ratio (GBA2 [3]) | Compound | rat α-glu. (% inhib.) [2] [%] |
| --- | --- | --- | --- |
| < 100 | enhanced binding specificity | O[C@H]1[C@H](O)CN(C[C@H]2CC[C@H](C(F)(F)F)CC2)C[C@@H]1O [Example 1, (3S,4R,5R)-1-(((1r,4R)-4-(trifluoromethyl)cyclohexyl)methyl)piperidine-3,4,5-triol] | 0 |
| < 100 | enhanced binding specificity | O[C@H]1[C@H](O)CN(C[C@H]2CC[C@@H](C(F)(F)F)CC2)C[C@@H]1O [Example 2, (3S,4R,5R)-1-(((1s,4S)-4-(trifluoromethyl)cyclohexyl)methyl)piperidine-3,4,5-triol] | 4 |
| < 100 | – | O[C@H]1[C@H](O)CN(Cc2ccc(Oc3ccccc3)cc2)C[C@@H]1O [Example 201, (3S,4r,5R)-1-(4-phenoxybenzyl)piperidine-3,4,5-triol] | 3 |
| 100 to 1000 | – | O[C@H]1[C@H](O)CN(Cc2ccc(N3CCCCC3)cc2)C[C@@H]1O [Example 204, (3S,4r,5R)-1-(4-(piperidin-1-yl)benzyl)piperidine-3,4,5-triol] | 4 |
| 1000 to 25000 | – | O[C@H]1[C@H](O)CN(Cc2cccs2)C[C@@H]1O [Example 205, (3S,4r,5R)-1-(thiophen-2-ylmethyl)piperidine-3,4,5-triol] | 4 |
